In US20250255945A1, “CLICK CHEMISTRY HLA POLYPEPTIDES” (IMMUNEO Therapeutics GmbH, priority 2024, published 2025):

System: peripheral blood mononuclear cells (PBMCs)
Experiment: IFN-γ ELISPOT assay (ex vivo) with subject PBMCs
Assay type: cell-based, human
Description: IFNγ ELISpot analysis (for protocol see A. Lalvani, R. Brookes, S. Hambleton, W. J. Britton, A. V. S. Hill, A. J. McMichael, J Exp Med 1997; 186 (6): 859-865) was performed ex vivo (without further in vitro culturing for expansion) using PBMCs depleted of CD4+ and enriched for CD8+ T cells (CD8+ effectors), or depleted of CD8+ and enriched for CD4+ T cells (CD4+ effectors). Tests were performed in duplicate and with a positive and negative control, Multiscreen filter plates (Merck Millipore) pre-coated with IFNγ-specific antibodies (ELISpotPro kit, Mabtech). 267.000 Cells were used per plate. Plates were scanned using an AID Classic Robot ELISPOT Reader and analyzed by AID ELISPOT 7.0 software (AID Autoimmun Diagnostika). Antigen Peptides (except negative and positive control group) were done in duplicates, spot counts were taken as mean values of each duplicate.
The immunogenicity of each of the six peptides was analyzed by IFN-γ secretion by subject peripheral blood mononuclear cells (PBMCs) using ELIspot assay. […]
The immunogenicity of each peptide was assessed in peripheral blood mononuclear cells (PBMCs) from patients and using the IFN-γ-ELISPOT assay. ELISPOT results were considered positive if the number of spots was at least 2-fold higher than the negative control (medium) and at least 50 spots were detected. […] We also tested the effect of delivery aiding peptides (DACP-1) and peptide extension by overlapping tandemization and tandemization on the immunogenicity of the epitopes.

[1] = Table 2, HTAPP-DACP, response in ELISPOT experiments
[2] = Table 6, further HTAPPs, HTAPP-DACPs and reference sequences
[3] = Table 1, HTAPPs, response in ELISPOT experiments
[4] = Table 4, HTAPP-DACP related to group therapy
[5] = Table 5, HTAPP-DACP related to group therapy

18 (KLVVVGAVGVGKSALTIRQIKIWFQNRRMKWKK) [compound 18]
Elispot [nspots/pM] [1]: 447,5 nspots/pM

69 (VAFLGCPGFAGVLQT) [compound 69]
Elispot [nspots/pM] [2]: 149,0 nspots/pM

2 (LANSPDLSHLAYYVTKVKEEDAF) [compound 2]
Elispot [nspots/pM] [3]: 419,5 nspots/pM

41 (HTLYGHTSTVHCMHLHEKRVRQIKIWFQNRRMKWKK) [compound 41]
Elispot [nspots/pM] [4]: 39,2 nspots/pM

77 (KKIRKPRTIYSSLQLQA) [compound 77]
Elispot [nspots/pM] [2]: 148,0 nspots/pM

26 (IPDEYGNTALHYAIYNEDKLMRQIKIWFQNRRMKWKK) [compound 26]
Elispot [nspots/pM] [1]: 347,5 nspots/pM

6 (NVGLSAVCTYNLSTAAAYCIHSINLHNFSNSVL) [compound 6]
Elispot [nspots/pM] [3]: 330,5 nspots/pM

84 (PPSNATAETQPIPQKAAYLEAIFLRDWDSLYSHDLDTSADS) [compound 84]
Elispot [nspots/pM] [2]: 197,5 nspots/pM

72 (MLFSNITPK) [compound 72]
Elispot [nspots/pM] [2]: 148,0 nspots/pM

36 (EYKLVVVGAVGVGKSALTIQRQIKIWFQNRRMKWKK) [compound 36]
Elispot [nspots/pM] [4]: 140 nspots/pM

63 (SQHMTEVVRHCPHHERCSDRQIKIWFQNRRMKWKK) [compound 63]
Elispot [nspots/pM] [5]: 88,3 nspots/pM

53 (MAQYLSTLLLLLATLAVALRQIKIWFQNRRMKWKK) [compound 53]
Elispot [nspots/pM] [5]: 190,8 nspots/pM

20 (LQEFRRFQDPGRIVAIVRQIKIWFQNRRMKWKK) [compound 20]
Elispot [nspots/pM] [1]: 500,0 nspots/pM

25 (RQRLALEAEKAAYEERGAAEALSVVRQIKIWFQNRRMKWKK) [compound 25]
Elispot [nspots/pM] [1]: 317,5 nspots/pM

48 (KVKIPVAIKTSPKANKEIRQIKIWFQNRRMKWKK) [compound 48]
Elispot [nspots/pM] [4]: 39,2 nspots/pM

56 (MTEYKLVVVGASGVGKSALTIQLIQNHRQIKIWFQNRRMKWKK) [compound 56]
Elispot [nspots/pM] [5]: 56,7 nspots/pM

61 (QHVKITDFGRAKLLGAEEKRQIKIWFQNRRMKWKK) [compound 61]
Elispot [nspots/pM] [5]: 76,7 nspots/pM

23 (MLFSNITPKAAYSPLTGGNMAFRQIKIWFQNRRMKWKK) [compound 23]
Elispot [nspots/pM] [1]: 285,0 nspots/pM

49 (LLDILDTAGHEEYSAMRDQRQIKIWFQNRRMKWKK) [compound 49]
Elispot [nspots/pM] [4]: 161,7 nspots/pM

66 (TIHYNYMCNSSCMGSMNRRPILTIRQIKIWFQNRRMKWKK) [compound 66]
Elispot [nspots/pM] [5]: 13,3 nspots/pM

82 (LEKLYLYFNKISKIENLEKLIKRQIKIWFQNRRMKWKK) [compound 82]
Elispot [nspots/pM] [2]: 305,0 nspots/pM

76 (PQELWHFLTQNLSLPN) [compound 76]
Elispot [nspots/pM] [2]: 470,5 nspots/pM

62 (RVCACPGRDWRTEEENLRKRQIKIWFQNRRMKWKK) [compound 62]
Elispot [nspots/pM] [5]: 279,2 nspots/pM

24 (RERRVASWAMSFERLRQIKIWFQNRRMKWKK) [compound 24]
Elispot [nspots/pM] [1]: 436,0 nspots/pM

75 (SAANIRALNVPPSLA) [compound 75]
Elispot [nspots/pM] [2]: 196,0 nspots/pM

44 (KAISTRDPLSKITEQEKDFLWRQIKIWFQNRRMKWKK) [compound 44]
Elispot [nspots/pM] [4]: 103,3 nspots/pM

10 (LFKDLGLPARTVSTTF) [compound 10]
Elispot [nspots/pM] [3]: 143,5 nspots/pM

34 (DSTPPPGTRVLAMAIYKQSQRQIKIWFQNRRMKWKK) [compound 34]
Elispot [nspots/pM] [4]: 35,8 nspots/pM

83 (QSYPGSASLAAYSGMPRISKLRQIKIWFQNRRMKWKK) [compound 83]
Elispot [nspots/pM] [2]: 367,5 nspots/pM

68 (YKLVVVGAGDVGKSALTIQLIQNHFVDRQIKIWFQNRRMKWKK) [compound 68]
Elispot [nspots/pM] [5]: 154,2 nspots/pM

46 (KLVVVGACGVGKSALTIQLIQNHRQIKIWFQNRRMKWKK) [compound 46]
Elispot [nspots/pM] [4]: 54,2 nspots/pM

80 (NFMLNQNVMLSVKGITKNVHTRQIKIWFQNRRMKWKK) [compound 80]
Elispot [nspots/pM] [2]: 232,5 nspots/pM

40 (HTLYGHTSTVCCMHLHEKRVRQIKIWFQNRRMKWKK) [compound 40]
Elispot [nspots/pM] [4]: 95,0 nspots/pM

9 (LPVMLLIVARPVKLAAFPTSLSD) [compound 9]
Elispot [nspots/pM] [3]: 289,5 nspots/pM

4 (ETNFKSLFHDLFQKVEE) [compound 4]
Elispot [nspots/pM] [3]: 233,5 nspots/pM

11 (SPLTGGNMAF) [compound 11]
Elispot [nspots/pM] [3]: 145,5 nspots/pM

74 (SPITSVLSADLFPKA) [compound 74]
Elispot [nspots/pM] [2]: 128,5 nspots/pM

59 (PSDQDLLRCCVLTSGIFETRQIKIWFQNRRMKWKK) [compound 59]
Elispot [nspots/pM] [5]: 100,8 nspots/pM

LQEFRRFQDPGRIVAIVRQIKIWFQNRRMKWKK [SEQ-ID-No.: 20]
response rate in ELIspot on addition of a DACP (Example 3 subject PBMCs, compared to the HTAPP without DACP): increase in the response rate

1 (KLVVVGAVGVGKSALTI) [compound 1]
Elispot [nspots/pM] [3]: 32,5 nspots/pM

47 (KLVVVGADGVGKSALTIQLIQNHRQIKIWFQNRRMKWKK) [compound 47]
Elispot [nspots/pM] [4]: 120,0 nspots/pM

37 (GACRHGDRCSRLHNKPTFSRQIKIWFQNRRMKWKK) [compound 37]
Elispot [nspots/pM] [4]: 47,5 nspots/pM

KKIRKPRTIYSSLQLQAAAYGIYDALFDIESKVDPSK [SEQ-ID-No.: 8]
increase in Elispot count (tandem peptide in relation to the more immunogenic single HTAP (SEQ-ID-No.: 77 / 78)): more than 237%

28 (SPRQCSSWTLAAYKLAAFPTSLRQIKIWFQNRRMKWKK) [compound 28]
Elispot [nspots/pM] [1]: 320,0 nspots/pM

65 (TEYKLVVVGAAGVGKSALTIQRQIKIWFQNRRMKWKK) [compound 65]
Elispot [nspots/pM] [5]: 22,5 nspots/pM

78 (GIYDALFDIESKVDPSK) [compound 78]
Elispot [nspots/pM] [2]: 134,5 nspots/pM

64 (STRDPLSEITKQEKDFLWSHRQIKIWFQNRRMKWKK) [compound 64]
Elispot [nspots/pM] [5]: 80,8 nspots/pM

35 (EYFMKQMNDARHGGWTTKMDRQIKIWFQNRRMKWKK) [compound 35]
Elispot [nspots/pM] [4]: 20,0 nspots/pM

60 (PSDQDLLRCHVLTSGIFETRQIKIWFQNRRMKWKK) [compound 60]
Elispot [nspots/pM] [5]: 163,3 nspots/pM

33 (ATYLWWVNNQSLPVSPRAAYLLLTASLLTFWNPRQIKIWFQNRRMKWKK) [compound 33]
Elispot [nspots/pM] [4]: 271,7 nspots/pM

30 (KDYSVLYVVPGPVRFQRQIKIWFQNRRMKWKK) [compound 30]
Elispot [nspots/pM] [1]: 234,0 nspots/pM

5 (IKPRILGFDTPHYWLC) [compound 5]
Elispot [nspots/pM] [3]: 267,5 nspots/pM

27 (LFKDLGLPARTVSTTFRQIKIWFQNRRMKWKK) [compound 27]
Elispot [nspots/pM] [1]: 196,0 nspots/pM

79 (AIYNEDKLMAKALLLYGADIERQIKIWFQNRRMKWKK) [compound 79]
Elispot [nspots/pM] [2]: 242,5 nspots/pM

71 (QRQLNTALPQPFREAPAYSNRQIKIWFQNRRMKWKK) [compound 71]
Elispot [nspots/pM] [2]: 270,5 nspots/pM

51 (LLGRNSFEVHVCACPGRDRRQIKIWFQNRRMKWKK) [compound 51]
Elispot [nspots/pM] [4]: 264,2 nspots/pM

52 (LLGRNSFEVLVCACPGRDRRQIKIWFQNRRMKWKK) [compound 52]
Elispot [nspots/pM] [4]: 275,0 nspots/pM

13 (LSKNLVAQISALALQLAAYGNSITGIISSVLGHIS) [compound 13]
Elispot [nspots/pM] [3]: 205 nspots/pM

81 (LTPKKLQCVDLHVISNDRQIKIWFQNRRMKWKK) [compound 81]
Elispot [nspots/pM] [2]: 272,5 nspots/pM

42 (ICLTSTVQLIMQLMPFGCLLRQIKIWFQNRRMKWKK) [compound 42]
Elispot [nspots/pM] [4]: 20,8 nspots/pM

45 (KIGDFGLATEKSRWSGSHQRQIKIWFQNRRMKWKK) [compound 45]
Elispot [nspots/pM] [4]: 55,0 nspots/pM

14 (SPRQCSSWTLAAYKLAAFPTSL) [compound 14]
Elispot [nspots/pM] [3]: 137,5 nspots/pM

8 (KKIRKPRTIYSSLQLQAAAYGIYDALFDIESKVDPSK) [compound 8]
Elispot [nspots/pM] [3]: 351,5 nspots/pM

54 (MLPQIPFLLLVSLNLVHGVFRQIKIWFQNRRMKWKK) [compound 54]
Elispot [nspots/pM] [5]: 246,7 nspots/pM

57 (NSSCMGGMNQRPILTIITLRQIKIWFQNRRMKWKK) [compound 57]
Elispot [nspots/pM] [5]: 102,5 nspots/pM

17 (QSYPGSASLAAYSGMPRISKL) [compound 17]
Elispot [nspots/pM] [3]: 202,5 nspots/pM

50 (LLGRNSFEVCVCACPGRDRRQIKIWFQNRRMKWKK) [compound 50]
Elispot [nspots/pM] [4]: 256,7 nspots/pM

55 (MTEYKLVVVGARGVGKSALRQIKIWFQNRRMKWKK) [compound 55]
Elispot [nspots/pM] [5]: 44,2 nspots/pM

29 (HRCATITHLLAAYYLVLNFNKKRQIKIWFQNRRMKWKK) [compound 29]
Elispot [nspots/pM] [1]: 342,5 nspots/pM

16 (RERRVASWAMSFERL) [compound 16]
Elispot [nspots/pM] [3]: 326,5 nspots/pM

22 (IKPRILGFDTPHYWLCRQIKIWFQNRRMKWKK) [compound 22]
Elispot [nspots/pM] [1]: 477,0 nspots/pM

19 (LANSPDLSHLAYYVTKVKEEDAFRQIKIWFQNRRMKWKK) [compound 19]
Elispot [nspots/pM] [1]: 430,5 nspots/pM

31 (QSYPGSASLAAYSGMPRISKLRQIKIWFQNRRMKWK) [compound 31]
Elispot [nspots/pM] [1]: 415,0 nspots/pM

67 (YGIPFIETSTKTRQRVEDARQIKIWFQNRRMKWKK) [compound 67]
Elispot [nspots/pM] [5]: 248,3 nspots/pM

3 (LQEFRRFQDPGRIVAIV) [compound 3]
Elispot [nspots/pM] [3]: 246,0 nspots/pM
